# Assays:
# [1] = test system: LNCAP; experiment: Cell differentiation, PSA production in LNCaP; format: cell-based, human; conditions: 10^−11 M to 10^−7 M, 6-7 days
# Description: Using the techniques of Skowronski et al., 132 Endocrinology (1993) 1952-1960 and 136 Endocrinology (1995) 20-26, both of which are incorporated herein by reference, cells of the cell line, LNCaP, which is derived from a human metastatic prostate adenocarcinoma and known to express PSA, are seeded in six-well tissue culture plates at a density of about 50,000 cells/plate. After the cells have attached and stabilized, about 2-3 days, the medium is replenished with medium containing vehicle or the active vitamin D analogue, 1α,24-(OH)2D2, at concentrations from 10^−11 M to 10^−7 M. After 6-7 days, medium is removed and stored at −20° C. for prostate specific antigen (PSA) analysis.
# The cells from parallel cultures are rinsed, precipitated, and the amount of DNA determined by standard procedures. PSA is measured by standard known methods.
# [2] = test system: advanced androgen-independent prostate cancer; experiment: Treatment of advanced androgen-independent prostate cancer, open-labeled study; format: in vivo, human; conditions: for progression of metastatic disease: after one and two years
# Text: Patients with advanced androgen-independent prostate cancer participate in an open- labeled study of 1α,24-(OH)2D2. […] On admission to the study, patients begin a course of therapy with oral 1α,24-(OH)2D2 lasting 26 weeks, while discontinuing any previous use of calcium supplements, vitamin D supplements, and vitamin D hormone replacement therapies. During treatment, the patients are monitored at regular intervals for: (1) hypercalcemia, hyperphosphatemia, hypercalciuria, hyperphosphaturia and other toxicity; (2) evidence of changes in the progression of metastatic disease; and (3) compliance with the prescribed test drug dosage.
# The study is conducted in two phases. During the first phase, the maximal tolerated dosage (MTD) of daily oral 1α,24-(OH)2D2 is determined by administering progressively higher dosages to successive groups of patients. All doses are administered in the morning before breakfast. […] Subsequent groups of patients are treated with 50.0, 75.0 and 100.0 μg/day.
# During the second phase, patients are treated with 1α,24-(OH)2D2 for 24 months at 0.5 and 1.0 times the MTD.
# [3] = test system: PC-3; experiment: Inhibition of cell proliferation, PC-3; format: cell-based, human; conditions: 10^−11 M to 10^−7 M, 6-7 days
# Description: (§1) The cell lines, LNCAP and PC-3, which are derived from human prostate adenocarcinoma, are seeded in six-well tissue culture plates at a density of about 50,000 cells/plate. After the cells have attached and stabilized, about 2-3 days, the medium is replenished with medium containing vehicle or the active vitamin D analogue 1α,24-(OH)2D2, at concentrations from 10^−11 M to 10^−7 M. Medium containing test analogue or vehicle is replaced every three days. After 6-7 days, the medium is removed, the cells are rinsed, precipitated with cold 5% trichloroacetic acid, and washed with cold ethanol. The cells are solubilized with 0.2 N sodium hydroxide, and the amount of DNA determined by standard procedures.
# [4] = test system: LNCAP; experiment: Inhibition of cell proliferation, LNCAP; format: cell-based, human; conditions: 10^−11 M to 10^−7 M, 6-7 days
# Description: as §1
compound,measurement,setting,value
"C=C1/C(=C\C=C2/CCC[C@]3(C)[C@@H]([C@H](C)/C=C/C(C)(O)C(C)C)CC[C@@H]23)C[C@@H](O)C[C@@H]1O (relative stereo) [1α,24-(OH)2D2, 5,6-cis-1α,24-dihydroxyvitamin D2]",PSA expressed as mass of PSA/cell versus control cultures,[1],significantly more PSA than control cultures
same,bone pain associated with metastatic disease,[2]; MTD for at least six months,significantly diminished
same,"maximum levels of circulating 1α,24-(OH)2D2",[2]; at the highest dosages,above 100 pg/mL
same,"circulating levels of 1α,25-(OH)2D3",[2]; during treatment,"suppressed, often to undetectable levels"
same,progression of metastatic disease,[2]; higher dosage (1.0 times the MTD),stable disease and partial or complete remission in many patients
same,"levels of circulating 1α,24-(OH)2D2 versus dosage",[2]; in vivo,increase proportionately with the dosage administered
same,serum and urine calcium,[2]; in vivo,elevated in a dose responsive manner
same,progression of metastatic disease,[2]; lower dosage (0.5 times the MTD),stable disease or partial remission in many patients
same,cell number (amount of DNA) versus control cultures,[3],significantly fewer cells than the control cultures
same,cell number (amount of DNA) versus control cultures,[4],significantly fewer cells than the control cultures

# — patent US6538037B2, “Methods for preparation and use of 1α,24(S)-dihydroxyvitamin D2” (Bone Care International, Inc., priority 1991, dated 2003)
